Experimental data reported in patent publication EP2423217A1, “Peptide and protein affinity tag from mistic protein” (Forschungsverbund Berlin E.V., priority 2010, dated 2012).
Where no end group is shown, it is not given here.

What was measured:
MB peptide [1] = target: T1, MB peptide (Bacillus subtilis, UniProt Q5BU39); assay: SPOT hybridization with TAMRA-MB: regeneration and reversibility; format: binding; set-up: made in house; host or cells: chemical SPOT synthesis on membrane (MultiPep synthesizer); settings: 25 µM MB in 114 mM phosphate buffer with 50 mM NaF at pH 2.8, over night at 4°C; eight spots
Procedure: A SPOT-analysis was carried out in order to assess oligomerization of the MB peptide and its ability to tether molecules. This approach is analogous to that of affinity chromatography, in that a solid phase-bound synthesized MB peptide is used to bind and isolate a molecule of interest that is tagged with the protein affinity tag of the present invention.
The nitrocellulose membrane which contained the MB peptide was incubated, and thus hybridized, with TAMRA-MB (MB peptide to which the TAMRA colouring agent has been covalently attached). If the spots remained coloured after washing an oligomerisation was judged to have taken place. Solid-phase bound MB peptide was synthesized directly on the membranes. Whatman 50 filter paper (Whatman GmbH, Dassel, Germany) was used for membrane-bound peptide synthesis. SPOT positions with a diameter of 3 mm were defined by treating isolated locations on the membrane with coupling reagents. The membrane bound peptides were assembled by the SPOT synthesizer MultiPep (Intavis Bioanalytical Instruments AG, Köln, Germany) according to standard protocols.
Spotted membranes were washed and blocked according to standard protocols before hybridization. After rinsing once with incubation buffer membranes were hybridized with TAMRA-MB over night at 4 °C under agitation. Incubation results were documented by scanning the membranes with a HP scanjet at 600 dpi. […]

MB peptide [2] = target: T1, MB peptide; assay: CD spectroscopy of MB oligomerization at different pH values; format: physicochemical; set-up: made in house; settings: for ratio 208 nm / 222 nm: 154 mM NaF; for oligomer state: AUC and CD spectroscopy
Text: The MB monomer is mostly unfolded (~70% random coil), whereby the MB tetramer forms an α-helix. […] This pH sensitive switchability is reversible and occurs completely and suddenly from pH 6.0 to 5.4.
• Figure 1: Molecular model of the secondary protein structure of the helical MB peptide. Hydrophobicity of the peptide MB is also indicated by differential after folding into an ideal helix. Hydrophilic groups are indicated with arrows from above, hydrophobic groups from below. (A) The hydrophobic areas in which the binding takes place. (B) View of the backside. • Figure 2: CD spectroscopy of MB at different pH values. Circular ellipticity of 50 µM MB at 208 nm or 222 nm was measured against buffer pH in 10 mM citrate or 10 mM phosphate buffer with 154 mM NaF at 20°C. Citrate buffer was applied for the pH range from pH 6.5 to 4 and phosphate buffer for the pH ranges 1.5 to 4 and 6.5 to 10. MB structure was uninfluenced by buffer type, because CD spectra in citrate buffer were equal to spectra in phosphate buffer in the overlapping pH regions. The wavelengths 208 nm and 222 nm are characteristic for α-helices. […] (A) The snapshots of the same membrane repeatedly hybridised (left) and regenerated (right) show similar results after each of the six repetitions. […] (B) Plot of the normalized median intensities of each spot against number of incubations. • Figure 4: Mutation analysis of the amino acids important in oligomerization. […] The amino acids numeration is shown as small numbers above the wild type letters, the wt sequence can be found in the middle (black frame). Letters listed vertically above the wt sequence intensify the interactions, letters below weaken or abolish. The bigger the letter size the stronger the influence, linear to the distance of the intensity to the wt mean intensity in times of SD, starting with a minimum of ±2 SD. • Figure 5: Summary of the single-point mutation and length analysis of the MB oligomerization (A) Single-point mutations substantially (p<0.05) influencing the oligomerization were grouped and are represented by bars above or below the wild type sequence (black frame).The amino acids numeration is shown as small numbers above the wild type letters. Bars above the wild type sequence signify an enhanced oligomerization and below a weakened or abolished. The bar size reflects the strength of the mutation's influences on the oligomerization. […] Amino acid positions which were especially mutation-susceptible are marked by a + or -. (B) MB was systematically truncated with a step size of two amino acids from either one of the termini or simultaneously both termini. The shortest still with TAMRA-MB oligomerizing truncates are shown in black frames.
In order to assess the oligomerization properties of MB peptide circular dichroism spectroscopy (CD spectroscopy) was carried out according to standard procedures. The MB tetramerization was triggered by acidic pH values while remaining unchanged in basic conditions. Starting from basic pH 10 down to slightly acidic pH 6 the structure of MB was invariable at constant concentrations. Between pH 6 to 5.4 a rapid and tremendous increase in helicity occurred. Below pH 5.4 the pronounced α-helical MB structure remained constant down to pH 1.5 (see Fig. 2).

physchem = settings: aqueous buffer
MB peptide [3] = target: T1, MB peptide; assay: Temperature dependence of MB peptide tetramerization; format: physicochemical; set-up: made in house
Procedure: The tetramerization of MB peptide is however dependent on temperature and the salt concentration of the buffer. In general, the proportion of MB peptide forming a tetramer is reduced with increasing temperature. At approximately 70°C, only monomers of the MB peptide are present. As the salt concentration increases, the tetramerisation increases accordingly at neutral pH values.

Sequence: MKVTSEEKEQLSTAIDRMNEGLDAFIQLYNES [MB peptide]
- consecutive incubations and regenerations with reproducible oligomerization (MB peptide [1]): six
- pH range of switch from monomer to α-helical tetramer (increase in helicity) (MB peptide [2]; 50 µM MB, 10 mM citrate or 10 mM phosphate buffer with 154 mM NaF, 20°C): 6 to 5.4
- random coil (MB peptide [2]; MB monomer): ~ 70%
- ratio 208 nm / 222 nm (MB peptide [2]; pH<5.4, 50 µM MB, 20°C): 0.93
- ratio 208 nm / 222 nm (MB peptide [2]; pH>6, 50 µM MB, 20°C): 2.18
- oligomer state (MB peptide [2]; same concentration (50 µM), pH <5.4): converts completely into tetramer
- oligomer state (MB peptide [2]; up to 50 µM in phosphate buffer at pH 6.5): remains purely as monomer
- solubility (physchem): ≥ 2200 µM
- temperature at which only monomers are present (MB peptide [3]): approximately 70 °C
